The values below come from patent publication EP4782453A1 (Beyang Therapeutics Co., Ltd., priority 2023, dated 2025).

For the first assay, the target named is T1, Menin-MLL (Homo sapiens, UniProt O00255).
T1 construct: His-Menin (M1-L615 end); purchased BIORTUS BP9210
T1 sequence (O00255 1-615 isoform O00255-1): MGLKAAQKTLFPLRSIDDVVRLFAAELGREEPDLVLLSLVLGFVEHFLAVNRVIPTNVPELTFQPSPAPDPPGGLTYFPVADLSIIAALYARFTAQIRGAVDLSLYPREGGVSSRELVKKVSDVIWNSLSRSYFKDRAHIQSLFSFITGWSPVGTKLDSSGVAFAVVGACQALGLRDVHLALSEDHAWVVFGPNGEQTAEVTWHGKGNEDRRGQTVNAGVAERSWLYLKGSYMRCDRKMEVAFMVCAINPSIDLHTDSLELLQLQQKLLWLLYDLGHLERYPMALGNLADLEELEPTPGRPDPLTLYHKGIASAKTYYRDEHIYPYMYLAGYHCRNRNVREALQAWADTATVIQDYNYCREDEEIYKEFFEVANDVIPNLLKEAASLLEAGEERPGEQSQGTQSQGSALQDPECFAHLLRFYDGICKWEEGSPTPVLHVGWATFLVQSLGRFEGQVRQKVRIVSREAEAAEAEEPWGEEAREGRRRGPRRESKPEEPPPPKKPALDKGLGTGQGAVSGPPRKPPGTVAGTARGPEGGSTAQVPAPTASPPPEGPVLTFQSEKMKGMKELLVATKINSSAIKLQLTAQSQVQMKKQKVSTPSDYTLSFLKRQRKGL
In words: Inhibitory activity against Menin-MLL binding (fluorescence polarization). As to conditions: Menin-MLL IC50, fluorescence polarization; 150 nM His-Menin, 15 nM FITC-MLL; 25°C for 60 min. Put shortly: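 Fluorescence polarization competition: compound and 150 nM His-tagged menin (residues M1-L615) sit 15 min at 25 °C in pH 7.5 HEPES buffer with NaCl, DTT and BSA; 15 nM FITC-labelled MLL peptide then binds for 60 min. IC50 fitted sigmoidally from mP values, duplicate wells.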
As to `CCS(=O)(=O)N[C@H]1CC[C@H](CN2CC(Cc3cc(-c4ccc(F)cc4C(=O)N(CC(F)F)C(C)C)c4cnn(C)c4c3)C2)CC1` [Example 161, N-(2,2-difluoroethyl)-5-fluoro-2-{1-methyl-6-[(1-{[(1r,4r)-4-ethanesulfonamidocyclohexyl]methyl}azacyclobutan-3-yl)methyl]-1H-indazol-4-yl}-N-(isopropyl)benzamide], the concentration for half-maximal inhibition (IC50) amounted to 33.5 nM.

Consider `CCN(C(=O)c1cc(F)ccc1-c1cc(N2CCN(C(=O)C3NC4CCC3CC4)CC2)cn2c(C)ncc12)C(C)C` [Compound 59, N-ethyl-5-fluoro-2-(3-methyl-6-{4-[(1R,3S,4S)-2-azabicyclo[2.2.2]octan-3-carbonyl]piperazin-1-yl}imidazo[1,5-a]pyridin-8-yl)-N-(isopropyl)benzamide], for which the IC50 turned out to be 23 nM. Take `CCS(=O)(=O)N[C@H]1CC[C@H](CN2CCCC(c3cc(-c4ccc(F)cc4C(=O)N(CC(F)F)C(C)C)c4cnn(C)c4c3)C2)CC1` (stereo partly shown) [Example 170, N-(2,2-difluoroethyl)-5-fluoro-2-[1-methyl-6-(1-{[(1r,4r)-4-ethanesulfonamidocyclohexyl]methyl}piperidin-3-yl)-1H-indazol-4-yl]-N-(isopropyl)benzamide]: the IC50 came to 60 nM.

On to `CCN(C(=O)c1cc(F)ccc1-c1cc([C@@H]2CCN(C[C@]3(O)CC[C@@H](NS(=O)(=O)CC)CC3)C2)cc2c1cnn2C)C(C)C` [Compound 55-2-1, N-ethyl-5-fluoro-2-[1-methyl-6-[(3S)-1-{[(1s,4s)-4-ethanesulfonamido-1-hydroxylcyclohexyl]methyl}pyrrolidin-3-yl]-1H-indazol-4-yl]-N-(isopropyl)benzamide], for which the half-inhibitory concentration (IC50) came out at 343 nM.

Still in this assay, the particulars now being: fluorescence polarization; 150 nM His-Menin, 15 nM FITC-MLL; 25°C for 60 min; read-out: Menin-MLL IC50.
Take `CCN(C(=O)c1cc(F)ccc1-c1cc(C2CN([C@H](CN3C[C@@H](O)[C@H](O)C3)C(C)C)C2)cn2c(C)ncc12)C(C)C` [Example 446-1, 2-(6-{1-[(2S)-1-[(3R,4R)-3,4-dihydroxylpyrrolidin-1-yl]-3-methylbutan-2-yl]azacyclobutan-3-yl}-3-methylimidazo[1,5-a]pyridin-8-yl)-N-ethyl-5-fluoro-N-(isopropyl)benzamide]: the concentration for half-maximal inhibition (IC50) was determined as 7.3 nM. For the compound `CC(C)N(CC(F)F)C(=O)c1cc(F)ccc1-c1cc([C@@H]2CCN(CCN3CCC(NC(=O)OC(C)(C)C)CC3)C2)cc2c1cnn2C` [Example 166-1, N-(1-{2-[(3S)-3-(4-{2-[(2,2-difluoroethyl)(isopropyl)aminoformyl]-4-fluorophenyl}-1-methyl-1H-indazol-6-yl)pyrrolidin-1-yl]ethyl}piperidin-4-yl)tert-butyl carbamate], the 50% inhibitory concentration (IC50) was found to be 231 nM. Still for that read-out and setting: in the case of `COCCN(C)CCCC(C(C)C)N1CC(c2cc(-c3ccc(F)cc3C(=O)N(CC(F)F)C(C)C)c3cnn(C)c3c2)C1` (stereo not shown) [Example 180] it was 22 nM; in that of `CCN(C(=O)c1cc(F)ccc1-c1cc(C2CCN(CC3CCC(NC(=O)OC(C)(C)C)CC3)C2)cc2cncn12)C(C)C` (stereo not shown) [Example 24, N-(4-{[3-(5-{2-[ethyl(isopropyl)aminoformyl]-4-fluorophenyl}imidazo[1,5-a]pyridin-7-yl)pyrrolidin-1-yl]methyl}cyclohexyl)tert-butyl carbamate], 23 nM; in that of `CCN(C(=O)c1cc(F)ccc1-c1cc(C2CN(C(C[C@@H]3CNCCO3)C(C)C)C2)cn2c(C)ncc12)C(C)C` (stereo partly drawn) [Example 462, N-ethyl-5-fluoro-2-[3-methyl-6-(1-{3-methyl-1-[(2R)-morpholin-2-yl]butan-2-yl}azacyclobutan-3-yl)imidazo[1,5-a]pyridin-8-yl]-N-(isopropyl)benzamide], 11 nM. Take `CCN(C(=O)c1cc(F)ccc1-c1cc(C2(O)CN([C@@H](CCCN3CCN(CCO)CC3)C(C)C)C2)cn2c(C)ncc12)C(C)C` [Example 464-2, N-ethyl-5-fluoro-2-(6-{3-hydroxyl-1-[(3S)-6-[4-(2-hydroxylethyl)piperazin-1-yl]-2-methylhexan-3-yl]azacyclobutan-3-yl}-3-methylimidazo[1,5-a]pyridin-8-yl)-N-(isopropyl)benzamide]: the IC50 is 190 nM. Still for that read-out and setting: in the case of `CCN(C(=O)c1cc(F)ccc1-c1cc(C2CN([C@@H](CCCN3CCC(OC)CC3)C(C)C)C2)cc2c1cnn2C)C(C)C` [Example 399-1, N-ethyl-5-fluoro-2-(6-{1-[(3S)-6-(4-methoxypiperidin-1-yl)-2-methylhexan-3-yl]azacyclobutan-3-yl}-1-methyl-1H-indazol-4-yl)-N-(isopropyl)benzamide] it was 110 nM; in that of `Cc1nc(F)c2c(-c3ccc(F)cc3C(=O)N3CCOC[C@H]3C)cc(C3CN([C@@H](CN4CCN(C(=O)OC(C)(C)C)CC4)C(C)C)C3)cn12` [Example 366-1, 4-[(2R)-2-[3-(1-fluoro-8-{4-fluoro-2-[(3R)-3-methylmorpholin-4-carbonyl]phenyl}-3-methylimidazo[1,5-a]pyridin-6-yl)azacyclobutan-1-yl]-3-methylbutyl]piperazin-1-tert-butyl carboxylate], 1150 nM. Still for that read-out and setting: with `CCN(C(=O)c1cc(F)ccc1-c1cc(C2CCN(CC3(O)CCC(NC(=O)OC(C)(C)C)CC3)C2)cn2c(C)ncc12)C(C)C` (stereo not shown) [Compound 50, N-(4-{[3-(8-{2-[ethyl(isopropyl)aminoformyl]-4-fluorophenyl}-3-methylimidazo[1,5-a]pyridin-6-yl)pyrrolidin-1-yl]methyl}-4-hydroxylcyclohexyl)tert-butyl carbamate] the figure was 14 nM; with `CCN(C(=O)c1cc(F)ccc1-c1cc(C2CN([C@@H](CC[C@@H]3COCCN3)C(C)C)C2)cn2c(C)ncc12)C(C)C` [Example 449-2, N-ethyl-5-fluoro-2-(3-methyl-6-{1-[(3S)-4-methyl-1-[(3R)-morpholin-3-yl]pentan-3-yl]azacyclobutan-3-yl}imidazo[1,5-a]pyridin-8-yl)-N-(isopropyl)benzamide], 34 nM; with `CCN(C(=O)c1cc(F)ccc1-c1cc(C2CN([C@H](CCCN3CC4COCC(C3)N4C(=O)OC(C)(C)C)C(C)C)C2)cn2c(C)ncc12)C(C)C` [Example 478], 1.1 nM. The same measure, in the same setting: in the case of `Cc1nc(F)c2c(-c3ccc(F)cc3C(=O)N3CCOC[C@H]3C)cc(C3CN([C@H](CN4CCN(C(=O)OC(C)(C)C)CC4)C(C)C)C3)cn12` [Example 366-2, 4-[(2S)-2-[3-(1-fluoro-8-{4-fluoro-2-[(3R)-3-methylmorpholin-4-carbonyl]phenyl}-3-methylimidazo[1,5-a]pyridin-6-yl)azacyclobutan-1-yl]-3-methylbutyl]piperazin-1-tert-butyl carboxylate] it was 38.5 nM; in that of `CCN(C(=O)C(C)C)c1cc(F)ccc1-c1cc(N2CCN(C(=O)C3NC4CCC3CC4)CC2)cn2c(C)ncc12` [Example 71, N-ethyl-N-[5-fluoro-2-(3-methyl-6-{4-[(1R,3S,4S)-2-azabicyclo[2.2.2]octan-3-carbonyl]piperazin-1-yl}imidazo[1,5-a]pyridin-8-yl)phenyl]-2-methylpropionamide], 15 nM; in that of `CCN(C(=O)c1cc(F)ccc1-c1cc(N2CCN(C[C@H]3CC[C@H](NS(=O)(=O)CC)CC3)CC2)cn2c(C)ncc12)C(C)C` [Example 84], 165 nM. As to `CCN(C(=O)c1cc(F)ccc1-c1cc(C2CN([C@@H](CN3CCN(C)CC3)C(C)C)C2)cc2c1cnn2C)C(C)C` [Example 402-1, N-ethyl-5-fluoro-2-(1-methyl-6-{1-[(2R)-3-methyl-1-(4-methylpiperazin-1-yl)butan-2-yl]azacyclobutan-3-yl}-1H-indazol-4-yl)-N-(isopropyl)benzamide], the IC50 was 110 nM.
